The values that follow come from patent publication US7169573B2, “Method for monitoring coagulability and hypercoagulable states” (Oklahoma Medical Research Foundation, priority 2001, dated 2007).

The conditions of data set [1]: cited from earlier work.
In another data set the test system is INR. In words: INR (prothrombin time based) in patients on oral anticoagulant. Conditions: individual patients taking Sintrom, one plasma sample per line. It is filed as in vivo, human.
The test system of data set [2] is soluble endothelial protein C receptor (sEPCR). In words: Plasma soluble EPCR level by monoclonal antibody-based ELISA in subjects on anticoagulant therapy. As to conditions: for [sEPCR]: individual patients taking Sintrom, plasma, ELISA. In kind it is in vivo, human. How it is done: Soluble EPCR is generated in vitro by metalloproteinase activity induced by thrombin and some inflammatory mediators (Xu et al., 2000). Thus, the inventors chose to determine whether soluble EPCR levels reflected in vivo thrombin generation. To evaluate this, the soluble EPCR levels were determined in patients on oral anticoagulant therapy and compared with soluble EPCR levels found in a normal, apparently healthy adult population (FIGS. 1A and 1B). These samples were obtained from collaborators in France (Dr. M. Grimeaux, Serbio/Diagnostica Stago). The soluble EPCR levels are assayed using a monoclonal antibody-based enzyme-linked immunosorbent assay (ELISA) (U.S. Pat. No. 5,804,392, incorporated by reference herein). […] Previscan is a major oral anticoagulant used in France and Germany. […] The half-life for factor VII is only 3–5 hours, whereas that for prothrombin is 60–100 hrs.
To further evaluate the relationship between plasma sEPCR levels and anticoagulant therapy, samples were obtained from a normal adult population and from patients on intravenous unfractionated heparin therapy (FIG. 3). The data shown in FIGS. 3, 4A, 4B and 5 were obtained from samples contributed by a collaborator in Italy (Dr. Armando D'Angelo, Scientific Institute H. S. Rafeale, Milan, Italy).
Plasma was stored at −80° C. for determination of sEPCR levels by ELISA.

The conditions of data set [3]: cited from earlier work. This is another data set of the same source.
For data set [4], the system named is prothrombin fragment 1+2 (F1+2).
Experimental: Blood was taken before the start of anticoagulation and sEPCR levels were determined by ELISA over the course of their therapy. There were 3 patients with atrial fibrillation and one patient each with dilative cardiomyopathy, mitral valve disease, atrial fibrillation+stroke, and deep vein thrombosis (DVT).

“And” between values parts separate entries of the source, which are not always exact repeats. Equal entries are not always repeated.

Take `O=C1c2ccccc2C(=O)C1c1ccc(F)cc1` [Previscan]: the “half-life (in words)” value in data set [1] (in vivo) is on record as “long half-life (days)”.
With `CC(=O)CC(c1ccc([N+](=O)[O-])cc1)c1c(O)c2ccccc2oc1=O` (centres unmarked) [Sintrom], the INR was 2.0 and 2.6 and 3.3 and 3.6 in the data set with INR; 2.6 (2×) and 2.7 (2×) and 2.8 and 3.1 (2×) and 3.3 (2×) and 3.4 and 3.5 and 3.6 and 4.5 and >5.0 (4×) and 1.5 and 1.8 and 1.9 and 2.0 in the data set on INR (listed as SINTROM). Moreover, the half-life in data set [1] (Sintrom) is ~8.5 h. Besides, the “[sEPCR]” value in data set [2] was 369 ng/mL and 357 ng/mL and 198 ng/mL and 293 ng/mL; in data set [2] (listed as SINTROM), 357 ng/ml and 131 ng/ml and 92 ng/ml and 127 ng/ml and 59 ng/ml and 61 ng/ml (2×) and 198 ng/ml and 171 ng/ml and 164 ng/ml and 56 ng/ml (2×) and 293 ng/ml and 172 ng/ml and 54 ng/ml and 94 ng/ml and 140 ng/ml and 135 ng/ml and 167 ng/ml and 369 ng/ml and 63 ng/ml.
4-hydroxycoumarin [Warfarin]: the “time to maximal blood levels” value in data set [1] (healthy volunteers, absorbed from the GI tract) was 90 min. In addition, in data set [1] (in vivo), the bioavailability entry is “excellent” and the onset is 2 to 7 days. Also, the “plasma sEPCR levels during Warfarin treatment period” value in data set [2] (6 normal adult subjects, Warfarin 7 days, FIG. 4A) is “declined”. In data set [2] (normal adult subjects), the “lag time before sEPCR levels declined after initiation of Warfarin” value fell in the range of 24 to 48 h and the “time after cessation of Warfarin until sEPCR levels began to increase” value was 24 to 48 h. Also, in data set [3] (during each year of therapy), the “intracranial bleeding, share of patients” value is recorded as 0.1–0.5% and the “major bleeding, share of people treated” value was 1–8%. In addition, the “Warfarin-induced skin necrosis, share of patients” value in data set [3] (in vivo) is recorded as 0.01–0.1%. Also, the “F1+2 level, % of initial values” in data set [4] (healthy subjects, day 5 of Warfarin, P<0.05) is 39%. In addition, in data set [4] (seven patients starting oral anticoagulation, FIG. 7), the “F1+2 levels after initiation of Warfarin therapy” value is on record as “declined in most of the patients”.
